According to PMC10018608 (Signal Transduction and Targeted Therapy, 2023):
Where two headings read alike, the source gives them in different places.

Assays:
[1] = in vitro; format: in vitro ADME; details: human, microsomes, HLM 0.5 mg/mL, 1 μM; for remaining at 0 h: 0 min, read-out: Percent Remaining (%) 0 min; for remaining at 0 h / remaining at 5 min / remaining at […] / remaining at 0.5 h / remaining at 0.75 h / remaining at 1 h: Mean; for remaining at 5 min: read-out: Percent Remaining (%) 5 min; for remaining at […]: 15 min, read-out: Percent Remaining (%) 15 min; for remaining at 0.5 h: 30 min, read-out: Percent Remaining (%) 30 min; for remaining at 0.75 h: 45 min, read-out: Percent Remaining (%) 45 min; for remaining at 1 h: 60 min, read-out: Percent Remaining (%) 60 min; for CLint scaled: scaling factor 1254.2
[2] = in vitro; format: cell-based
Experimental: Cells were seeded and grown in 96 well plates overnight. Then various concentrations of compounds in fresh medium were added and incubated for 72 h. Using MTT (Sigma) assay to determine the cell viability.

[3] = SD rats
[4] = in vivo; details: male, Sprague-Dawley, rat
[5] = system: SARS-CoV-1; assay: microbe, parasite or virus in culture; format: cell-based; details: Severe acute respiratory syndrome coronavirus, VeroE6/TMPRSS2, read-out: EC50 (plaque reduction)
[6] = system: SARS-CoV-2 (BA.5); assay: microbe, parasite or virus in culture; format: cell-based; details: Severe acute respiratory syndrome coronavirus 2, VeroE6-TMPRSS2, read-out: EC50 (plaque reduction)
[7] = system: SARS-CoV-2 (B.1.1.7); assay: Plaque reduction assay in VeroE6-TMPRSS2; format: cell-based; details: Severe acute respiratory syndrome coronavirus 2
[8] = system: SARS-CoV-2 (BA.2); assay: Plaque reduction assay in VeroE6-TMPRSS2; format: cell-based; details: Severe acute respiratory syndrome coronavirus 2
[9] = system: SARS-CoV-2 (B.1.351); assay: Plaque reduction assay in VeroE6-TMPRSS2; format: cell-based; details: Severe acute respiratory syndrome coronavirus 2
[10] = system: MERS-CoV; assay: microbe, parasite or virus in culture; format: cell-based; details: Middle East respiratory syndrome-related coronavirus, VeroE6/TMPRSS2, read-out: EC50 (plaque reduction)
[11] = in vitro; format: in vitro ADME, human; details: human, plasma
[12] = African green monkey, VeroE6, MTT, 72 h

Row | Structure (SMILES) | half-life [1] [h] | remaining at 0 h [1] [%] | remaining at 5 min [1] [%] | remaining at […] [1] [%] | remaining at 0.5 h [1] [%] | remaining at 0.75 h [1] [%] | remaining at 1 h [1] [%] | CLint scaled [1] [mL/min/kg] | CC50 [2, 12] [µM] | CC50 ([2]; human, BEAS-2B, MTT, 72 h) [µM] | CC50 ([2]; human, HUVEC, MTT, 72 h) [µM] | MTRlast ([3]; i.v. (1 mg/kg)) [h] | Vzobs ([3]; i.v. (1 mg/kg)) [L/kg] | MTRlast ([3]; p.o. (10 mg/kg)) [h] | AUC(0-inf) ([4]; iv, 1 mg/kg) [ng·h/mL] | AUC(0-t) ([4]; iv, 1 mg/kg) [ng·h/mL] | Cmax ([4]; iv, 1 mg/kg) [ng/mL] | Tmax ([4]; iv, 1 mg/kg) [h] | clearance ([4]; iv, 1 mg/kg) [mL/min/kg] | half-life ([4]; iv, 1 mg/kg) [h] | also measured
1 | O=C(CC1CC(F)(F)C1)NCC(=O)N[C@H](Cc1ccccc1)C(=O)C(=O)NCc1nccs1 [3q] | 0.426 | 100 | 86 | 63.1 | 40.1 | 30.3 | 19.1 | 68.1 | – | – | – | – | – | – | – | – | – | – | – | – | –
2 | C[C@@H](NC(=O)C1CCC(F)(F)CC1)C(=O)N[C@H](Cc1ccccc1)C(=O)C(=O)NCc1nccs1 [3r] | 0.594 | 100 | 91.5 | 73.2 | 51 | 39.1 | 32.5 | 48.8 | > 500 | > 500 | > 500 | 1.31 ± 0.54 | 3.05 ± 2.08 | 4.89 ± 1.14 | 1020 ± 262 | 1010 ± 258 | 1110 ± 70 | 0.08 | 17 ± 3.8 | 2.41 ± 2.24 | AUC(0-inf) ([4]; po, 10 mg/kg): 2840 ± 327 ng·h/mL; AUC(0-t) ([4]; po, 10 mg/kg): 2570 ± 679 ng·h/mL; Cmax ([4]; po, 10 mg/kg): 306 ± 32.1 ng/mL; Tmax ([4]; po, 10 mg/kg): 2.67 ± 1.15 h; bioavailability ([4]; po, 10 mg/kg): 25.4 ± 6.71%; half-life ([4]; po, 10 mg/kg): 3.01 ± 0.91 h
3 | C[C@@H](NC(=O)C1CCCC(F)(F)C1)C(=O)N[C@H](Cc1ccccc1)C(=O)C(=O)NCc1nccs1 (some centres unmarked) [3s] | 0.424 | 100 | 81.7 | 64.2 | 42 | 28.4 | 18.9 | 68.4 | – | – | – | – | – | – | – | – | – | – | – | – | –
4 | C[C@@H](NC(=O)C1CCC(F)(F)C1)C(=O)N[C@H](Cc1ccccc1)C(=O)C(=O)NCc1nccs1 (some centres unmarked) [3t] | 0.704 | 100 | 89.1 | 73.5 | 56.2 | 46.2 | 37 | 41.2 | > 500 | > 500 | > 500 | 1.26 ± 0.42 | 2.49 ± 1.61 | 5.90 ± 0.79 | 1330 ± 556 | 1290 ± 531 | 1320 ± 168 | 0.08 | 14.5 ± 7.25 | 1.9 ± 0.27 | AUC(0-inf) ([4]; po, 10 mg/kg): 6900 ± 2620 ng·h/mL; AUC(0-t) ([4]; po, 10 mg/kg): 6720 ± 2460 ng·h/mL; Cmax ([4]; po, 10 mg/kg): 635 ± 161 ng/mL; Tmax ([4]; po, 10 mg/kg): 1.67 ± 0.58 h; bioavailability ([4]; po, 10 mg/kg): 52 ± 19.1%; half-life ([4]; po, 10 mg/kg): 4.15 ± 1.48 h
5 | C[C@@H](NC(=O)CC1CC(F)(F)C1)C(=O)N[C@H](Cc1ccccc1)C(=O)C(=O)NCc1nccs1 [3u] | – | – | – | – | – | – | – | – | > 500 | > 500 | > 500 | 3.19 ± 0.31 | 3.65 ± 0.74 | 6.57 ± 0.38 | 2250 ± 672 | 2200 ± 634 | 1570 ± 201 | 0.08 | 7.95 ± 2.8 | 5.47 ± 0.77 | AUC(0-inf) ([4]; po, 10 mg/kg): 8700 ± 1120 ng·h/mL; AUC(0-t) ([4]; po, 10 mg/kg): 8180 ± 795 ng·h/mL; Cmax ([4]; po, 10 mg/kg): 735 ± 102 ng/mL; Tmax ([4]; po, 10 mg/kg): 1.33 ± 0.58 h; bioavailability ([4]; po, 10 mg/kg): 37.2 ± 3.62%; half-life ([4]; po, 10 mg/kg): 5.84 ± 1.3 h
6 | COC[C@@H](NC(=O)C1CCC(F)(F)CC1)C(=O)N[C@H](Cc1ccccc1)C(=O)C(=O)NCc1nccs1 [3v] | 0.65 | 100 | 88.3 | 73.2 | 54.5 | 42.3 | 34.7 | 44.6 | 132 ± 19.8 | 159 ± 4.34 | 129 ± 13.4 | 3.55 ± 0.52 | 5.25 ± 2.13 | 7.63 ± 0.57 | 2830 ± 959 | 2570 ± 820 | 1700 ± 237 | 0.08 | 6.48 ± 2.63 | 9.49 ± 2.16 | CC50 ([2]; human (BEAS-2B, African green monkey (VeroE6)), across BEAS-2B, VeroE6, and HUVEC cells, MTT): 129 to 159 µM; AUC(0-inf) ([4]; po, 10 mg/kg): 14000 ± 783 ng·h/mL; AUC(0-t) ([4]; po, 10 mg/kg): 12700 ± 1270 ng·h/mL; Cmax ([4]; po, 10 mg/kg): 1010 ± 115 ng/mL; Tmax ([4]; po, 10 mg/kg): 4 h; bioavailability ([4]; po, 10 mg/kg): 49.2 ± 4.92%; half-life ([4]; po, 10 mg/kg): 6.64 ± 1.17 h
7 | COC[C@@H](NC(=O)CC1CC(F)(F)C1)C(=O)N[C@H](Cc1ccccc1)C(=O)C(=O)NCc1nccs1 [3x] | 0.507 | 100 | 91.1 | 71.5 | 50.5 | 34.3 | 26.5 | 57.2 | > 500 | > 500 | > 500 | 3.18 ± 0.53 | 3.28 ± 1.17 | 6.47 ± 0.50 | 2390 ± 645 | 2360 ± 639 | 1350 ± 116 | 0.08 | 7.3 ± 1.9 | 5.09 ± 0.57 | AUC(0-inf) ([4]; po, 10 mg/kg): 11200 ± 364 ng·h/mL; AUC(0-t) ([4]; po, 10 mg/kg): 10800 ± 124 ng·h/mL; Cmax ([4]; po, 10 mg/kg): 806 ± 75.4 ng/mL; Tmax ([4]; po, 10 mg/kg): 2 h; bioavailability ([4]; po, 10 mg/kg): 45.8 ± 0.52%; half-life ([4]; po, 10 mg/kg): 4.67 ± 1.04 h
8 | O=C(c1ccc(F)cc1)C1CCN(CCn2c(=O)[nH]c3ccccc3c2=O)CC1 [Ketanserin, reference compound] | 0.373 | – | 86.9 | 62.2 | 38.1 | 24.4 | 15.9 | 77.6 | – | – | – | – | – | – | – | – | – | – | – | – | –
9 | CC(C)(C)[C@H](NC(=O)C(F)(F)F)C(=O)N1C[C@H]2[C@@H]([C@H]1C(=O)N[C@H](C#N)C[C@@H]1CCNC1=O)C2(C)C [Nirmatrelvir, reference compound] | 0.407 | 100 | 86.5 | 60 | 38.7 | 26 | 18.6 | 71.2 | – | – | – | – | – | – | – | – | – | – | – | – | EC50 [5]: 7.66 µM; EC50 [6]: 5.05 µM; EC50 [7]: 49.4 µM; EC50 [8]: 1.08 µM; EC50 [9]: 28.8 µM; EC50 [10]: 11.3 µM
10 | CC(=O)CC(c1ccccc1)c1c(O)c2ccccc2oc1=O (centres unmarked) [Warfarin, reference compound] | – | – | – | – | – | – | – | – | – | – | – | – | – | – | – | – | – | – | – | – | fraction unbound [11]: 0.009
